Experimental data published in patent publication US20240238232A1, “COMPOSITIONS AND METHODS FOR THE REDUCTION OR TREATMENT OF INSULIN RESISTANCE AND METABOLIC CONDITIONS” (AXCELLA HEALTH INC., priority 2018, published 2024).
Values joined by “and” are separate entries in the source; they are usually repeats but may differ in a detail not shown here. Equal values may be shown once.

What was measured:
STAM™ model (NASH) = assay: NAFLD activity score (HE staining, Kleiner criteria) in STAM mice, Example 2; assay type: in vivo, mouse; parameters: key to NAFLD Activity Score (NAS), mean / NAFLD Activity Score: raw data: NAS = steatosis (0-3) + inflammation (0-2) + ballooning (0-2); key to NAFLD Activity: Steatosis Score, mean / NAFLD Activity: Steatosis Score: raw data: steatosis grade 0-3 (Kleiner criteria); conditions: A-1 1500 mg/kg twice daily, OCA 30 mg/kg once daily
Protocol: (§1) Amino Acid Composition A-1 and Obeticholic acid (6α-ethyl-chenodeoxycholic acid; “OCA”) were tested for their ability to treat NASH in the STAM™ model (Stelic Institute & Co., Tokyo, Japan; Saito K. et al., 2015 Sci Rep 5:12466). Two additional groups of normal C57BL/6 mice fed standard chow and vehicle treated STAM™ mice were included as controls. All animals receiving treatment or vehicle were treated starting at 6 weeks until 9 weeks of age. Compounds were administered via oral gavage, with a dose volume of 10 ml/kg. Amino Acid Composition A-1 was administered twice daily at a dose of 1500 mg/kg, and OCA was administered once daily at a dose of 30 mg/kg.
STAM™ is a model for non-alcoholic steatohepatitis (NASH) and hepatocellular carcinoma (HCC), developed by SMC Laboratories, Inc. and created by the combination of chemical and dietary interventions using C57BL/6 mice (Saito K. et al., 2015 Sci Rep 5:12466). Mice are treated with a low dose of streptozotocin at birth and fed a high fat diet starting at 4 weeks. Evidence of fatty liver is present by 5 weeks, followed by NASH by 7 weeks and fibrosis by 9 weeks.
NASH was induced in 53 male mice by a single subcutaneous injection of 200 μg streptozotocin (STZ, Sigma-Aldrich, USA) solution 2 days after birth and feeding with high fat diet (HFD, 57 kcal % fat, Cat #HFD32, CLEA Japan, Japan) after 4 weeks of age.
(§2) Amino Acid Composition A-1, OCA and Vehicle (described below) were administered by oral route in a volume of 10 mL/kg. Amino Acid Composition A-1 was solubilized in deionized water to 150 mg/ml (10 X). OCA (Advanced ChemBlocks Inc.) was resuspended in 0.5% methycellulose in water to 3 mg/ml (10 X). Amino Acid Composition A-1 was administered at a dose of 1500 mg/kg twice daily (9 am and 7 pm). OCA was administered at a dose of 30 mg/kg once daily (9 am).
Liver samples from mice in Group 2 (Vehicle), 3 (Amino Acid Composition A-1) and 4 (OCA) were used for the following assays. For HE staining, sections were cut from paraffin blocks of liver tissue prefixed in Bouin's solution and stained with Lillie-Mayer's Hematoxylin (Muto Pure Chemicals Co., Ltd., Japan) and eosin solution (Wako Pure Chemical Industries). NAFLD Activity score (NAS) was calculated according to the criteria of Kleiner (Kleiner D. E. et al., Hepatology, 2005; 41:1313).
The non-alcoholic fatty liver disease (NAFLD) activity score was assessed via histological analysis and grading of H&E stained liver sections from each animal. This score is the sum of three individual scores that grade the degree of steatosis (0-3), inflammation (0-2), and hepatocyte ballooning (0-2). All tissues were graded using the scoring criteria of Kleiner et al. (Kleiner et al. Hepatology. 2005; 41(6): 1313-21). Data are mean±standard deviation (stdev). […] Both Amino Acid Composition A-1 and OCA were statistically different from vehicle for NAFLD Activity Score when compared using Dunnett's multiple comparisons test (Amino Acid Composition A-1 p=0.0001, OCA p=0.0001).

[1] = test system: α-smooth muscle actin (αSMA), activated hepatic stellate cells; assay: α-smooth muscle actin staining of liver sections (activated hepatic stellate cells) in STAM mice, Example 2; assay type: in vivo, mouse; conditions: A-1 1500 mg/kg twice daily, OCA 30 mg/kg once daily
Protocol: as §1, §2
Liver sections of all mice were stained for the marker α-smooth muscle actin (αSMA) to identify activated hepatic stellate cells. Images were quantified using the percent of positively stained area was used as a measure of stellate cell activation. […]

FATZO mouse model [2] = assay: Blood glucose in FATZO mice on WDF, Example 5; assay type: in vivo; conditions: oral gavage 4 weeks, LIVRQNAC 3000 mg/kg, LIVRQNAC+G 3,885 mg/kg, LRQNAC 2,469 mg/kg BID, OCA QD
Text: (§3) NASH was induced in 60 male FATZO mice by a western diet (Research Diet #D12079B; fat 40% kcal, protein 17% kcal, carbohydrate 43% kcal) supplemented with 500 fructose in the drinking water (WDF) during a 16 week induction phase. Diets and water were available ad libitum. Littermate control male FATZO mice fed with a control diet (n=6, Purina #5008; fat 17% kcal, protein 27% kcal, carbohydrate 56% kcal) and sterile water were set up for control purpose. Mice were housed in plastic cages with microisolator. Sterilized bedding was replaced once a week. Mice were housed three per cage and maintained on a twelve hour light cycle throughout study duration. Room temperature was monitored daily and maintained at 22-25° C. Body weight was recorded every week during the induction phase.
Following 16 weeks diet induction, 6 mice remained on control diet (group 1, Control) while 60 induced mice were randomized on body weight and plasma glucose (fed) for assignment to the following treatments. FATZO mice were administered with test articles starting at 16 weeks post western diet NASH induction for 4 weeks. […]
[…], […]+G, LRQNAC, OCA and Vehicle were administered by oral gavage at a volume of 10 mL/kg throughout the study. Dosages were calculated by daily body weight. […]
The viability, clinical signs and behavior were monitored daily. Body weight was recorded daily during the dosing period. […]

FATZO mouse model [3] = assay: Liver triglyceride and cholesterol content in FATZO mice on WDF, Example 5; assay type: in vivo; conditions: 4 weeks
Text: as §3
Following 16 weeks diet induction, 6 mice remained on control diet (group 1, Control) while 60 induced mice were randomized on body weight and plasma glucose (fed) for assignment to the following treatments. FATZO mice were administered with test articles starting at 16 weeks post western diet NASH induction for 4 weeks. Test articles were administered by oral gavage. Animals were euthanized at 20 weeks post western diet NASH induction, and tissues were harvested for analysis.
[…], […]+G, LRQNAC, OCA and Vehicle were administered by oral gavage at a volume of 10 mL/kg throughout the study. Dosages were calculated by daily body weight. […], […]+G, LRQNAC, and Vehicle were administered twice per day (BID), while OCA was administered once a day (QD) in the morning. Mice receiving OCA once per day (QD), and one vehicle QD. Doses were administered by oral gavage at 0700 and 1800 by oral gavage for 4 weeks.
Liver triglyceride and cholesterol content were similarly elevated after WDF feeding compared to vehicle treated animals fed control diet (liver triglyceridep<00.0040; liver cholesterol: p<0.0001). Among animals fed WDF, there were no significant differences in liver triglyceride (p<0.1206) when compared to vehicle for any treatment group. […]

[4] = STAM mice, oral, 6 to 9 weeks of age
[5] = oral, LIVRQNAC + G 3885 mg/kg, LRQNAC 2469 mg/kg, OCA 30 mg/kg/day

Structure (SMILES): CC[C@H]1[C@@H](O)[C@@H]2[C@H](CC[C@]3(C)[C@@H]([C@H](C)CCC(=O)O)CC[C@@H]23)[C@@]2(C)CC[C@@H](O)C[C@@H]12 [OCA, 6α-ethyl-chenodeoxycholic acid]
- NAFLD Activity Score (NAS), mean (STAM™ model (NASH); [4]): 2.9+/−0.74 and 2.9
- NAFLD Activity: Ballooning Score, mean (STAM™ model (NASH); [4]): 0.3+−0.48 and 0.3
- NAFLD Activity: Inflammation Score, mean (STAM™ model (NASH); [4]): 1.8
- NAFLD Activity: Steatosis Score, mean (STAM™ model (NASH); [4]): 0.8
- NAFLD Activity Score: raw data (STAM™ model (NASH); individual STAM mice): 2 (3×) and 4 (2×) and 3 (5×)
- NAFLD Activity: Ballooning Score: raw data (STAM™ model (NASH); individual STAM mice): 0 (7×) and 1 (3×)
- NAFLD Activity: Inflammation Score: raw data (STAM™ model (NASH); individual STAM mice): 1 (4×) and 2 (4×) and 3 (2×)
- NAFLD Activity: Steatosis Score: raw data (STAM™ model (NASH); individual STAM mice): 1 (8×) and 0 (2×)
- Activated hepatic stellate cells (mean positively stained area, α-smooth muscle actin) [1, 4]: 1.562+/−0.31% and 1.562%
- Activated hepatic stellate cells (positively stained area, α-smooth muscle actin): raw data ([1]; individual STAM mice): 1.51% and 1.49% (2×) and 1.17% and 1.13% and 2.03% and 1.87% and 1.97% and 1.46%
- Average blood glucose over the dosing period (FATZO mouse model [2]): 169.7 ± 6.3 mg/dL
- Reduction of liver cholesterol content compared to vehicle (FATZO mouse model [3]): 32%
- Liver Cholesterol (FATZO mouse model [3]; [5]): 5.63 ± 0.495
- Liver Triglyceride (FATZO mouse model [3]; [5]): 49.81 ± 1.63
